The IC50 is the concentration needed to halve the response being measured.

This is an account of results in publication PMC4129416, “YLT192, a Novel, Orally Active Bioavailable Inhibitor of VEGFR2 Signaling with Potent Antiangiogenic Activity and Antitumor Efficacy in Preclinical Models” (Scientific Reports, 2014).

Experiment [1] has as its system A375. Briefly: Inhibition of tumor cell growth. In kind it is cell-based. To be noted: A-375; A375, human melanoma; 48 hour treatment; means ± SD, n=3. How it is done:
(§1) The proliferative inhibitory ability of YLT192 on tumor cells was investigated. […] Inhibition of cell proliferation is a possible approach for cancer treatment. EdU incorporation assay was performed to investigate the anti-proliferative effects of YLT192 against U251 and HCT116 cells. […]
(§2) treatment with YLT192. Data are means ± SD, n=3. cell line cell type IC50(μM)
(§3) HCT116 human colorectal carcinoma 7.4 ±0.5
(§4) A431 human pidermoid carcinoma 7.7 ±0.9
(§5) BxPC-3 human pancreatic cancer 8.2 ±0.6
(§6) Hep G2 human hepatocellular carcinoma 7.9 ±0.5
(§7) SW620 human colorectal carcinoma 7.9 ±1.7
(§8) SKOV-3 human ovarian carcinoma 8.2 ±1.5
(§9) LS147T human colorectal carcinoma 9.0 ±1.1
(§10) PANC-1 human pancreatic cancer 9.8 ±1.9
(§11) BEL7402 human hepatocellular carcinoma 11.3 ±1.1
(§12) MDA-MB-231 human mammary carcinoma 11.9 ±2.1
(§13) SMMC-7721 human hepatocellular carcinoma 12.1 ±1.6
(§14) SPC-A1 human lung cancer 16.4 ±1.4
(§15) MCF-7 human mammary carcinoma 16.8 ±1.7
(§16) Hela human epithelial carcinoma 18.9 ±2.4
(§17) MV4-11 human acute myeloid leukemia 21.9 ±1.9
(§18) COLO-205 human colorectal carcinoma 23.0 ±1.5

For experiment [2], the system named is B16. Briefly: Inhibition of tumor cell growth. The following applies: B16, mouse melanoma; 48 hour treatment; means ± SD, n=3. In kind it is cell-based. As for the experimental part:
as §1, §2, §3, §4, §5, §6, §7, §8, §9, §10, §11, §12, §13, §14, §15, §16, §17, §18

Experiment [3] has as its system DU145. The experiment in a line: Inhibition of tumor cell growth. The class given is cell-based. To be noted: DU-145; DU145, human prostate cancer; 48 hour treatment; means ± SD, n=3. As for the experimental part:
as §1, §2, §3, §4, §5, §6, §7, §8, §9, §10, §11, §12, §13, §14, §15, §16, §17, §18

For experiment [4], the system named is NIH-H1975. The experiment in a line: Inhibition of tumor cell growth. The class given is cell-based. To be noted: NIH-H1975, human lung cancer; 48 hour treatment; means ± SD, n=3. How it is done: as §1, §2, §3, §4, §5, §6, §7, §8, §9, §10, §11, §12, §13, §14, §15, §16, §17, §18
Experiment [5] deals with U251. The experiment in a line: Inhibition of tumor cell growth. The class given is cell-based. To be noted: U-251; U251, human glioblastoma; 48 hour treatment; means ± SD, n=3. How it is done:
as §1, §2, §3, §4, §5, §6, §7, §8, §9, §10, §11, §12, §13, §14, §15, §16, §17, §18

The subject of experiment [6] is COLO-205. Briefly: Inhibition of tumor cell growth. The class given is cell-based. The following applies: COLO-205, human colorectal carcinoma; 48 hour treatment; means ± SD, n=3.
Text: Data are means ± SD, n=3.
cell line cell type IC50(μM) […]
as §18

Experiment [7] concerns HCT116 cells. The experiment in a line: Western blot of apoptosis-related proteins caspase 3 and Bax. The class given is cell-based, human. The following applies: 48 hours. How it is done: Figure 4 Inhibitory effects of YLT192 on tumor cells. (A) YLT192 inhibited U251 and HCT116 cells proliferation. The EdU incorporation assay was conducted on U251 and HCT116 cells after treated with YLT192 for 24 hours. The EdU-positive (red fluorescent staining) cells and Hoechst staining (blue fluorescent staining) cells represented proliferating and total cells in the fluorescent images, respectively (100×). Quantification was shown on the right panels. (B) YLT192 induced apoptosis of HCT116 cells. HCT116 cells were treated with YLT192 or vehicle for 48 hours followed by flow cytometric analysis of annexin V-FITC and PI staining. The proportion of early apoptotic cells (annexin V positive) and late apoptotic cells (annexin V and PI positive cells) were shown. Typical apoptosis-related proteins caspase 3 and Bax were detected by western blot. Each has the expression of β-actin as internal control. The full size blots were shown in the Supplemental Figure S6 online. […] U251 and HCT116 cells were treated with YLT192 or vehicle for 48 hours and the expression of protein in different signaling pathways were detected by western blot with specific antibodies. […]
Supplementary Figure S7. […] HCT116 cells were treated with YLT192 or vehicle for 48 hours and then typical apoptosis-related proteins caspase 3 and Bax were detected by western blot. […]

Experiment [8] has as its target VEGFR2 (Homo sapiens, UniProt P35968). Briefly: Cellular thermal shift assay (target engagement) in intact HUVECs. The class given is binding. More on the design: stabilize the target in intact HUVECs; endogenous in cells; host or cells: primary HUVECs (passages 3-8). To be noted: 40 μM, 3 h, 40-49°C. How it is done: Then we investigate whether YLT192 bind to VEGFR2 in intact HUVECs. If VEGFR2 is bound by YLT192, it will be stabilized by the physical engagement.
The ability of YLT192 to interact with, and thereby stabilize the target in intact HUVECs, was evaluated as described by Molina et al.[22] with some modifications. Briefly, subconfluent HUVECs were incubated with 40 μM YLT192 or vehicle for 3 h. Then the cells were detached with trypsin and collected in TBS containing complete protease inhibitor cocktail. The cells were divided into 4 aliquots and heated individually at 40, 43, 46, 49°C for 3 minutes. Subsequently, the cell suspensions were freeze-thawed three times using liquid nitrogen. Soluble proteins were separated from the precipitated fraction by centrifugation at 17,000 g for 20 min. The proteins were then detected with immunoblot analysis using the VEGFR2-antibody.

Sequence of VEGFR2 (P35968 20-1356): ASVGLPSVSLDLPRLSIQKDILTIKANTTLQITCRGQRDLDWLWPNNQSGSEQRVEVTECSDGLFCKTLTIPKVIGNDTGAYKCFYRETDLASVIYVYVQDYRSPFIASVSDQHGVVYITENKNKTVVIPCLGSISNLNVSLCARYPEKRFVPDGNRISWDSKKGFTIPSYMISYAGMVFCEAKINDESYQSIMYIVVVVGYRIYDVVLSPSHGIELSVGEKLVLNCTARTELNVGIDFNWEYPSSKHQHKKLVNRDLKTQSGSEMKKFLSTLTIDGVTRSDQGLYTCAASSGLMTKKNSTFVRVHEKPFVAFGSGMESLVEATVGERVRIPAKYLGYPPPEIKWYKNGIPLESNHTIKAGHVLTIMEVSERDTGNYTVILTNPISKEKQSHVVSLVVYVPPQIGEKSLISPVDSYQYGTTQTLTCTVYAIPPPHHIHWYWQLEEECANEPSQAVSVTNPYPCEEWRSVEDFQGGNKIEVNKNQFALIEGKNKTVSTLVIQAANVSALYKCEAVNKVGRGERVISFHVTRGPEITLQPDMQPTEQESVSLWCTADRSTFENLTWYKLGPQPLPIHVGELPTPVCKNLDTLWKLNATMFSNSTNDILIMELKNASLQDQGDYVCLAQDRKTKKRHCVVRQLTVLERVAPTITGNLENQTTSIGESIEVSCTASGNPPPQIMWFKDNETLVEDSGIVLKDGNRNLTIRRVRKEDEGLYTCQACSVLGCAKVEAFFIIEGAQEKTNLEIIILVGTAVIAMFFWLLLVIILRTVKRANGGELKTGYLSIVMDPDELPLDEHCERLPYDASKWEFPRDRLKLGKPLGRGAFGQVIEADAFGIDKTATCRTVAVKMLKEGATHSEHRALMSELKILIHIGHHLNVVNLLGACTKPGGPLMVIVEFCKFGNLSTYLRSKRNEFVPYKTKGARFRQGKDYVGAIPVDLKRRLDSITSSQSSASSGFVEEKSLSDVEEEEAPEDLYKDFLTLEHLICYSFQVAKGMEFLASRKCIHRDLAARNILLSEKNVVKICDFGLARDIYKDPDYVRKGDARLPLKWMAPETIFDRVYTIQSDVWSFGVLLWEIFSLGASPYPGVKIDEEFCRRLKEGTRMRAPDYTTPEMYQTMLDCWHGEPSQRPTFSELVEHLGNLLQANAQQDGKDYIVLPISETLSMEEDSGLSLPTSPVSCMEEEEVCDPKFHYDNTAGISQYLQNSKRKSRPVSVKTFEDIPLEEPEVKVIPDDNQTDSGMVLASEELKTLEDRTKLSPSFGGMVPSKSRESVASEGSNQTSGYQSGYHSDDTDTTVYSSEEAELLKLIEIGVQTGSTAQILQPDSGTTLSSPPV

For the compound `CNC(=O)c1cc(Oc2ccc(NC(=O)c3cccc(OC)c3)cc2)ccn1` [YLT192], the IC50 in experiment [1] worked out at 12.4 ± 1.1 µM; in experiment [2], 21.2 ± 2.1 µM; in experiment [3], 22.8 ± 2.6 µM; in experiment [4] it was 27.3 ± 1.2 µM; in experiment [5], 6.5 ± 0.8 µM; in experiment [6] it was 23 ± 1.5 µM. Further, the “expression of pro-apoptotic Bax” value in experiment [7] is “increased”. For the same compound, the “pro-caspase-3 and its pro-apoptotic cleaved forms” value in experiment [7] was “a reduction of pro-caspase-3 and an increase in levels of its pro-apoptotic cleaved forms”. Also, the “thermal stabilization of VEGFR2” value in experiment [8] is listed as “efficiently stabilized VEGFR2”.
